# Like-named read-outs stand apart in the source and are kept apart here. Positions of bridges follow the written chain, without caps; N, C: chain ends. Non-standard residues stand in square brackets, D forms with d. Residues, ends and D or L forms follow the SMILES beside them. Hyp = O=C(O)[C@@H]1C[C@@H](O)CN1; NMeF = CN[C@@H](Cc1ccccc1)C(=O)O; AllylGly = C=CC[C@H](N)C(=O)O; NMeNle = CCCC[C@H](NC)C(=O)O; NMeA = CN[C@@H](C)C(=O)O; Dab = NCC[C@H](N)C(=O)O; Dap = NC[C@H](N)C(=O)O
# Columns and labels:
# Human PD-L1/PD-1 = target: T1, Human PD-L1/PD-1 (Homo sapiens, UniProt Q9NZQ7); experiment: HTRF PD-1-Ig/PD-L1-His binding assay (human PD-L1); settings: cluster symbol; read-out: HTRF IC50 cluster
# T1 construct: made in house; host or cells: HEK293T
# T1 sequence (Q9NZQ7 with tags, fused parts or gaps): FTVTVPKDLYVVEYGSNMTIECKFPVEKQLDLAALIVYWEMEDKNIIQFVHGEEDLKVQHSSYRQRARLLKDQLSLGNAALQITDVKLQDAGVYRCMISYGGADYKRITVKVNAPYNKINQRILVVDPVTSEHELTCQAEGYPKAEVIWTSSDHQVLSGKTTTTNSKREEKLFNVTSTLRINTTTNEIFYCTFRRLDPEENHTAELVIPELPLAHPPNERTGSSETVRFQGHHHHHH
# Outline: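 The time-resolved fluorescence signal comes from Eu-cryptate anti-Ig (1 nM) and APC anti-His (20 nM) antibodies bound to a PD-1-Ig/PD-L1-His complex. Both partners lack transmembrane regions.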
# [1] = target: T2, LK35.2-hPD-L1 cells / PE-labeled PD-1-Ig (Homo sapiens, UniProt Q9NZQ7); experiment: LK35.2-hPD-L1 cell binding high-content screening assay; format: cell-based; settings: cluster symbol, read-out: CBA IC50 cluster
# T2 construct: expressed in transfected cells; host or cells: LK35.2 mouse B cell line
# T2 sequence (Q9NZQ7 19-290): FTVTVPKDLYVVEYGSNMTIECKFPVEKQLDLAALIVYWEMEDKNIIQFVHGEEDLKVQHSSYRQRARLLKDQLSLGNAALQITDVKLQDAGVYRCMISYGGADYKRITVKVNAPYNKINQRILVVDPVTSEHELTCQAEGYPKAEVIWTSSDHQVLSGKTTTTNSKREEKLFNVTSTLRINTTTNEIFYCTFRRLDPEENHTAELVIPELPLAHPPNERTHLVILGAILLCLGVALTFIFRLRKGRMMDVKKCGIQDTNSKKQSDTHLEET
# Outline: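 Binding of PE-conjugated human PD-1-Ig (1 nM final) to human PD-L1 stably expressed on a mouse B-cell line (LK35.2) was measured by high-content imaging after washes. Compound and labeled PD-1-Ig were co-incubated 1 h at 37 °C with cells in RPMI/10% FCS.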
# [2] = cell binding assay, cell line not given
# [3] = cell line of CBA not given (LK35.2-hPD-L1 or 293T-hPD-L1)
Structure (SMILES),IC50 (Human PD-L1/PD-1),"IC50 [1, 2]","IC50 [1, 3]"
CCCC[C@H]1C(=O)N(C)[C@@H](CCCC)C(=O)N[C@@H](CCCNC(=N)N)C(=O)N[C@H](C(=O)NCC(=O)NCC(N)=O)CSCC(=O)N[C@@H](Cc2ccc(O)cc2)C(=O)N(C)[C@@H](C)C(=O)N[C@@H](CC(N)=O)C(=O)N2CCC[C@H]2C(=O)N[C@@H](Cc2cnc[nH]2)C(=O)N[C@@H](CC(C)C)C(=O)N2CCC[C@H]2C(=O)N[C@@H](Cc2c[nH]c3ccccc23)C(=O)N[C@@H](CO)C(=O)N[C@@H](Cc2c[nH]c3ccccc23)C(=O)N1C [Example 6018] ({CH2CO}-Y[NMeA]NPHLPWSW[NMeNle][NMeNle]RCGG-NH2; thioether N-14),0.385 to 6.74 nM,0.158 to 4.71 nM,
CCCC[C@H]1C(=O)N(C)[C@@H](CCCC)C(=O)N[C@@H](CCCNC(=N)N)C(=O)N[C@H](C(=O)NCC(N)=O)CSCC(=O)N[C@@H](Cc2ccccc2)C(=O)N(C)[C@@H](C)C(=O)N[C@@H](CC(N)=O)C(=O)N2CCC[C@H]2C(=O)N[C@@H](Cc2cnc[nH]2)C(=O)N[C@@H](CC(C)C)C(=O)N[C@@H](CC(N)=O)C(=O)N[C@@H](Cc2c[nH]c3ccccc23)C(=O)N[C@@H](CO)C(=O)N[C@@H](Cc2c[nH]c3ccccc23)C(=O)N1C [Example 1075] ({CH2CO}-F[NMeA]NPHLNWSW[NMeNle][NMeNle]RCG-NH2; thioether N-14),> 30.5 nM,,> 74.3 nM
CCCC[C@H]1C(=O)N(C)[C@@H](CCCC)C(=O)N[C@@H](CC(C)C)C(=O)N[C@H](C(=O)NCC(N)=O)CSCC(=O)N[C@@H](Cc2ccc(O)cc2)C(=O)N(C)[C@@H](C)C(=O)N[C@@H](CCN)C(=O)N2CCC[C@H]2C(=O)N[C@@H](Cc2c[nH]cn2)C(=O)N[C@@H](CCC(=O)O)C(=O)N2C[C@H](O)C[C@H]2C(=O)N[C@@H](Cc2c[nH]c3ccccc23)C(=O)N[C@@H](CO)C(=O)N[C@@H](Cc2c[nH]c3ccccc23)C(=O)N1C [Example 5133] ({CH2CO}-Y[NMeA][Dab]PHE[Hyp]WSW[NMeNle][NMeNle]LCG-NH2; thioether N-14),0.385 to 6.74 nM,4.78 to 72.9 nM,
C=CC[C@@H]1NC(=O)[C@H](Cc2c[nH]c3ccccc23)NC(=O)[C@@H]2CCCN2C(=O)[C@H](CC(C)C)NC(=O)[C@H](Cc2cnc[nH]2)NC(=O)[C@@H]2CCCN2C(=O)[C@H](CC(N)=O)NC(=O)[C@H](C)N(C)C(=O)[C@H](Cc2ccc(O)cc2)NC(=O)CSC[C@@H](C(=O)NCC(N)=O)NC(=O)[C@H](C)NC(=O)[C@H](CCCC)N(C)C(=O)[C@H](CCCC)N(C)C(=O)[C@H](Cc2c[nH]c3ccccc23)NC1=O [Example 7020] ({CH2CO}-Y[NMeA]NPHLPW[AllylGly]W[NMeNle][NMeNle]ACG-NH2; thioether N-14),0.385 to 6.74 nM,4.78 to 72.9 nM,
CCCC[C@H]1C(=O)N2CCC[C@@H]2C(=O)N[C@@H](CCC(=O)O)C(=O)N[C@@H](C(C)C)C(=O)N(C)[C@@H](Cc2ccccc2)C(=O)N[C@@H](CN)C(=O)N2CCC[C@@H]2C(=O)N[C@@H](Cc2c[nH]c3ccccc23)C(=O)N[C@@H](Cc2ccc(O)cc2)C(=O)N[C@@H](CC(C)C)C(=O)N[C@H](C(=O)NCC(N)=O)CSCC(=O)N[C@@H](Cc2ccccc2)C(=O)N(C)[C@@H](Cc2ccccc2)C(=O)N1C [Example 3191] ({CH2CO}-F[NMeF][NMeNle][dP]EV[NMeF][Dap][dP]WYLCG-NH2; thioether N-13),0.385 to 6.74 nM,,4.78 to 72.9 nM
CCCC[C@H]1C(=O)N(C)[C@@H](CCCC)C(=O)N[C@@H](CC(C)C)C(=O)N[C@H](C(=O)NCC(N)=O)CSCC(=O)N[C@@H](Cc2ccc(O)cc2)C(=O)N(C)[C@@H](C)C(=O)N[C@@H](CC(N)=O)C(=O)N2CCC[C@H]2C(=O)N[C@@H](Cc2c[nH]cn2)C(=O)N[C@@H](CCC(=O)O)C(=O)N2C[C@H](O)C[C@H]2C(=O)N[C@@H](Cc2c[nH]c3ccccc23)C(=O)N[C@@H](CO)C(=O)N[C@@H](Cc2c[nH]c3ccccc23)C(=O)N1C [Example 5003] ({CH2CO}-Y[NMeA]NPHE[Hyp]WSW[NMeNle][NMeNle]LCG-NH2; thioether N-14),6.76 to 30.3 nM,0.158 to 4.71 nM,
